Experimental data published in patent publication US6368604B1, “Non-pyrogenic derivatives of lipid A” (priority 1997, dated 2002).

Columns and labels:
mice = settings: cited from earlier work
HIV-1 = settings: in vivo; cited from earlier work
human PBMCs [1] = test: LPS antagonist activity: TNFα from human PBMCs stimulated with W3110 LPS mixed with test preparation; type: cell-based; settings: 1 μg/ml mixed with W3110 LPS 10 ng/ml, 8 hr
Method: (§1) Quantitation of TNFα, IL-1β, IL-6, MIP-1α and MIP-1β in these culture supernatants was achieved by capture ELISA (R&D Systems).
W3110 LPS (also cultured at 37° C.) from 1 ng/ml to 100 ng/ml alone and W3110 LPS (10 ng/ml) mixed with synthetic lipid IVA (1 μg/ml) were used as controls.

human PBMCs [2] = test: β chemokine (MIP-1α, MIP-1β, RANTES) secretion from human PBMCs, dose and time course, capture ELISA; type: cell-based
human PBMCs [3] = test: Human PBMC activation assay: TNFα, IL-1β, IL-6 in culture supernatants by capture ELISA; type: cell-based; settings: human PBMC culture supernatants after stimulation, 1 μg/ml, 8 hr
Method: 50 ml of whole blood is mixed with an equal volume of RPMI (Life Technologies) and PBMCs are isolated by density gradient using lymphocyte separation medium according to the manufacturer's directions (Organon). The PBMCs are washed twice with RPMI then resuspended in 6 ml of ice cold sterile water and placed on ice for 30 sec to lyse the erythrocytes. The osmolarity is adjusted by adding 2 ml of ice cold 3.5% (w/v) NaCl; the PBMCs are harvested by centrifugation, washed with RPMI and resuspended in complete medium (CM; RPMI containing pyruvate, glutamine, PenStrep, and 10% endotoxin-free human AB serum (Life Technologies) at a density of 6×10^6 PBMCs/ml. CM containing the preparations to be assayed are placed into duplicate wells of a 96-well flat bottom culture late (Costar) at double the target final concentration. An equal volume of CM containing the PBMCs then is added to these wells and the culture plates are incubated at 37° C. in 5% CO2 for 8 hr. The supernatants are then removed and stored at […] Quantitation of TNFα, IL-1β, IL-6, MIP-1α, MIP-1β and RANTES in these culture supernatants is achieved by capture ELISA (R&D Systems).
as §1
This observation was reproduced using four unrelated PBMC donors and two separate LPS preparations. […]

HIV-1BAL = test: Replication of HIV-1BAL in human PBMC-derived monocytes (p24 ELISA); type: cell-based; settings: 1000, 100 and 10 ng/ml for 24 hours before infection; p24 after a further 19 days
Method: FIG. 5. Lipid A antagonist, lipid IVA, inhibits HIV replication. PBMCs were treated with synthetic lipid IVA at 1000 ng/ml, 100 ng/ml and 10 ng/ml for 24 hours. The treated cells were subsequently infected with 0.200 ng of HIV-1BAL (Cocchi et al, supra) for 2 hours, washed twice and incubated for a further 19 days. Culture supernatants were then collected and the level of p24 in these supernatants was measured by ELISA (R&D Systems). […] Figure Legend:
To investigate the utility of the aforementioned findings, we investigated whether commercially available synthetic lipid IVA (ICN Inc.) suppressed the replication of HIV-1BAL in human PBMC-derived monocytes. Therefore, PBMCs were obtained as outlined in Section 6, see above, and placed into 12 well culture flat-bottom plate and incubated in CM (see example 1) for […] at 37° C. in 5% Co2. Non-adherent cells were removed and the cells were given fresh media every 2 days. After 6 days, the adherent PBMCs were treated with synthetic lipid IVA at 1000 ng/ml, 100 ng/ml and 10 ng/ml for 24 hours. […] Culture supernatants were then collected and the level of p24 in these supernatants was measured by ELISA (R&D Systems).
PBMC-derived monocytes were obtained as outlined in Section 8, see above. […] Culture supernatants were then collected and the level of p24 in these supernatants was measured by ELISA (R&D Systems).

2,3-diacyl-glucosamine-1-phosphate [lipid X]
pyrogenicity / toxicity in mice (mice): non-pyrogenic

Cc1cn([C@H]2C[C@H](N=[N+]=[N-])[C@@H](CO)O2)c(=O)[nH]c1=O [AZT, 3′-azido-2′,3′-dideoxythymidine]
effect on viral load (HIV-1): about 1 log reduction

CCCCCCCCCCC[C@@H](O)CC(=O)N[C@H]1[C@H](OC[C@H]2O[C@H](OP(=O)(O)O)[C@H](NC(=O)C[C@H](O)CCCCCCCCCCC)[C@@H](OC(=O)C[C@H](O)CCCCCCCCCCC)[C@@H]2O)O[C@H](CO)[C@@H](OP(=O)(O)O)[C@@H]1OC(=O)C[C@H](O)CCCCCCCCCCC [Lipid IVA]
TNFα (human PBMCs [1]): <30 pg/mL
induction of β chemokines (human PBMCs [2]): WITHOUT INDUCING […] OF β CHEMOKINES
IL-1β (human PBMCs [3]): 13 ± 1 pg/mL
IL-6 (human PBMCs [3]): 7581 ± 20 pg/mL
replication of HIV-1BAL (p24 in supernatants) (HIV-1BAL): suppresses the replication of HIV-1BAL in a dose-dependent manner

CCCCCC/C=C/CCCCCC(=O)O[C@H](CCCCCCCCCCC)CC(=O)NC1C(OCC2OC(OP(=O)(O)O)C(NC(=O)CC(=O)CCCCCCCCCCC)C(OC(=O)C[C@H](O)CCCCCCC)C2O)OC(CO)C(OP(=O)(O)O)C1OC(=O)C[C@H](O)CCCCCCC (some centres unmarked) [RsDPLA, R. sphaeroides diphosphoryl lipid A]
level of RANTES after stimulation (human PBMCs [2]; human PBMCs): not significantly elevated
MIP-1α secretion (human PBMCs [2]; human PBMCs, various doses): stimulated the secretion of MIP-1α and MIP-1β in a dose-dependent manner
MIP-1β secretion (human PBMCs [2]; human PBMCs, various doses): stimulated the secretion of MIP-1α and MIP-1β in a dose-dependent manner
time of peak production of chemokines (MIP-1α, MIP-1β) after stimulation (human PBMCs [2]; supernatants 8, 16, 24 and 48 hr after stimulation): 24 h
